# Laboratory results reported in PubChem BioAssay AID2060890 (Molecular Pharmacology Branch, DTP, NCI, 2025).
# Tested on: LG0703-F948-PDC complex spheroid viability
# Assay: Anticancer human tumor LG0703-F948-PDC patient-derived lung adenocarcinoma cell line growth inhibition [RAS]
# Settings: for IC50: curve of first compound; for viability, T/C: stronger effect = lower value
# How it was run: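 Agents were tested in combination matrices in half-log decrements from a top concentration at or near clinical Cmax (10 microM if undetermined). Targets were multi-cell spheroids of tumour lines plus HUVEC and MSC stromal cells.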
# 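Also: spheroids exposed to agents for 7 days.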
# 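For viability, T/C in this document: 100% = DMSO vehicle wells.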
smiles,measurement,setting,value
CCc1c2c(nc3ccc(O)cc13)-c1cc3c(c(=O)n1C2)COC(=O)[C@]3(O)CC + C#Cc1c(F)ccc2cc(O)cc(-c3ncc4c(N5CC6CCC(C5)N6)nc(OCC56CCCN5CC(F)C6)nc4c3F)c12,IC50,second compound 0.0316 µM,38.2 nM
same,IC50,second compound 0.1 µM,35.9 nM
same,IC50,second compound 0.316 µM,47.6 nM
same,IC50,second compound 1 µM,34.9 nM
same,IC50,second compound 3.16 µM,32.2 nM
same,IC50,second compound 10 µM,< 0.949 nM
same,"viability, T/C","second compound 0.0316 µM, first compound 0.000949 µM",98.4%
same,"viability, T/C","second compound 0.0316 µM, first compound 0.003 µM",90.5%
same,"viability, T/C","second compound 0.0316 µM, first compound 0.00949 µM",72.3%
same,"viability, T/C","second compound 0.0316 µM, first compound 0.03 µM",48.3%
same,"viability, T/C","second compound 0.0316 µM, first compound 0.0949 µM",41.7%
same,"viability, T/C","second compound 0.0316 µM, first compound 0.3 µM",19.7%
same,"viability, T/C","second compound 0.1 µM, first compound 0.000949 µM",92.4%
same,"viability, T/C","second compound 0.1 µM, first compound 0.003 µM",91.1%
same,"viability, T/C","second compound 0.1 µM, first compound 0.00949 µM",77.6%
same,"viability, T/C","second compound 0.1 µM, first compound 0.03 µM",49.8%
same,"viability, T/C","second compound 0.1 µM, first compound 0.0949 µM",36.4%
same,"viability, T/C","second compound 0.1 µM, first compound 0.3 µM",20.1%
same,"viability, T/C","second compound 0.316 µM, first compound 0.000949 µM",85.3%
same,"viability, T/C","second compound 0.316 µM, first compound 0.003 µM",77.7%
same,"viability, T/C","second compound 0.316 µM, first compound 0.00949 µM",81.5%
same,"viability, T/C","second compound 0.316 µM, first compound 0.03 µM",51.7%
same,"viability, T/C","second compound 0.316 µM, first compound 0.0949 µM",41.4%
same,"viability, T/C","second compound 0.316 µM, first compound 0.3 µM",20.2%
same,"viability, T/C","second compound 1 µM, first compound 0.000949 µM",65.5%
same,"viability, T/C","second compound 1 µM, first compound 0.003 µM",61.7%
same,"viability, T/C","second compound 1 µM, first compound 0.00949 µM",61.7%
same,"viability, T/C","second compound 1 µM, first compound 0.03 µM",50.9%
same,"viability, T/C","second compound 1 µM, first compound 0.0949 µM",38.4%
same,"viability, T/C","second compound 1 µM, first compound 0.3 µM",25.3%
same,"viability, T/C","second compound 3.16 µM, first compound 0.000949 µM",58.5%
same,"viability, T/C","second compound 3.16 µM, first compound 0.003 µM",60.3%
same,"viability, T/C","second compound 3.16 µM, first compound 0.00949 µM",50.3%
same,"viability, T/C","second compound 3.16 µM, first compound 0.03 µM",52.7%
same,"viability, T/C","second compound 3.16 µM, first compound 0.0949 µM",30.4%
same,"viability, T/C","second compound 3.16 µM, first compound 0.3 µM",17%
same,"viability, T/C","second compound 10 µM, first compound 0.000949 µM",41%
same,"viability, T/C","second compound 10 µM, first compound 0.003 µM",49.4%
same,"viability, T/C","second compound 10 µM, first compound 0.00949 µM",46.9%
same,"viability, T/C","second compound 10 µM, first compound 0.03 µM",33.9%
same,"viability, T/C","second compound 10 µM, first compound 0.0949 µM",30.4%
same,"viability, T/C","second compound 10 µM, first compound 0.3 µM",15.7%
